Results: ChEMBL document CHEMBL1133898 (Bioorg Med Chem Lett, 2001)

Assays:
[1] = biological target: T1, Sodium-dependent dopamine transporter (Rattus norvegicus, UniProt P23977); experiment: Inhibition of high affinity uptake of [3H]DA using rat nerve endings obtained from brain regions enriched in DAT.
[2] = biological target: T1, Sodium-dependent dopamine transporter; experiment: Displacement of [3H][…] from dopamine transporter (DAT) of rat striatal membrane
[3] = biological target: T2, Norepinephrine transporter (Rattus norvegicus, UniProt Q9WTR4); experiment: Displacement of [3H]NE from Norepinephrine transporter of rat brain
[4] = biological target: T3, Sodium-dependent serotonin transporter (Rattus norvegicus, UniProt P31652); experiment: Displacement of [3H]5-HT from serotonin transporter of rat brain
[5] = biological target: T1, Sodium-dependent dopamine transporter; experiment: Inhibitory concentration binding to Dopamine transporter using 0.5 nM [3H]WIN-35428
[6] = biological target: T2, Norepinephrine transporter; experiment: (§1) Inhibitory concentration binding to Norepinephrine transporter using 0.2 nM […]
[7] = biological target: T3, Sodium-dependent serotonin transporter; experiment: Inhibitory concentration binding to Serotonin transporter using 0.5 nM […]
[8] = biological target: T2, Norepinephrine transporter; experiment: Evaluated for ability to inhibit high affinity uptake of [3H]-NE using rat nerve endings obtained from brain regions enriched in Norepinephrine transporter; format: functional
[9] = biological target: T3, Sodium-dependent serotonin transporter; experiment: Evaluated for ability to inhibit high affinity uptake of [3H]5-HT using rat nerve endings obtained from brain regions enriched in serotonin transporter (5HTT); format: functional
[10] = biological target: T1, Sodium-dependent dopamine transporter; experiment: Inhibitory concentration binding to dopamine transporter using 0.5 nM [3H]WIN-35428
[11] = biological target: T2, Norepinephrine transporter; experiment: as §1; format: functional
[12] = biological target: T2, Norepinephrine transporter; experiment: Evaluated for its ability to inhibit high affinity uptake of [3H]NE using rat nerve endings obtained from brain regions enriched in norepinephrine transporter (NET); format: functional
[13] = biological target: T3, Sodium-dependent serotonin transporter; experiment: Evaluated for its ability to inhibit high affinity uptake of [3H]-5-HT using rat nerve endings obtained from brain regions enriched in serotonin transporter (5HTT); format: functional

T3 sequence (P31652 whole entry): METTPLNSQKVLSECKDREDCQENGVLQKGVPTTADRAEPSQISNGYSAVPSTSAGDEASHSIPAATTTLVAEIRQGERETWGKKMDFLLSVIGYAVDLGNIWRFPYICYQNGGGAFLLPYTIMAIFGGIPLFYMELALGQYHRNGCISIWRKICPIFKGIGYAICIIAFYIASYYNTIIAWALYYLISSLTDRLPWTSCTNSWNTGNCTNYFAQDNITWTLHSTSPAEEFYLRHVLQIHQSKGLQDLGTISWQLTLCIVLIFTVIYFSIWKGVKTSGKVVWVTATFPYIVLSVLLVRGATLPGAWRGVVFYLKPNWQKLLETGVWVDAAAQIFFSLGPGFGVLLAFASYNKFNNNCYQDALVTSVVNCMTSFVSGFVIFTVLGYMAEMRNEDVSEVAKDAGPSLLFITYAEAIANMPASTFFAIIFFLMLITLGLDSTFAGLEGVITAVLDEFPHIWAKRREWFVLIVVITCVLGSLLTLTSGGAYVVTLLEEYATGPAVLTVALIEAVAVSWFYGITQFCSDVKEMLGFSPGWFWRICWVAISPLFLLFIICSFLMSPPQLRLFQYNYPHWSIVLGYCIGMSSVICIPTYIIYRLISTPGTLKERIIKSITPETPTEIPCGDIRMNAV
T2 sequence (Q9WTR4 whole entry): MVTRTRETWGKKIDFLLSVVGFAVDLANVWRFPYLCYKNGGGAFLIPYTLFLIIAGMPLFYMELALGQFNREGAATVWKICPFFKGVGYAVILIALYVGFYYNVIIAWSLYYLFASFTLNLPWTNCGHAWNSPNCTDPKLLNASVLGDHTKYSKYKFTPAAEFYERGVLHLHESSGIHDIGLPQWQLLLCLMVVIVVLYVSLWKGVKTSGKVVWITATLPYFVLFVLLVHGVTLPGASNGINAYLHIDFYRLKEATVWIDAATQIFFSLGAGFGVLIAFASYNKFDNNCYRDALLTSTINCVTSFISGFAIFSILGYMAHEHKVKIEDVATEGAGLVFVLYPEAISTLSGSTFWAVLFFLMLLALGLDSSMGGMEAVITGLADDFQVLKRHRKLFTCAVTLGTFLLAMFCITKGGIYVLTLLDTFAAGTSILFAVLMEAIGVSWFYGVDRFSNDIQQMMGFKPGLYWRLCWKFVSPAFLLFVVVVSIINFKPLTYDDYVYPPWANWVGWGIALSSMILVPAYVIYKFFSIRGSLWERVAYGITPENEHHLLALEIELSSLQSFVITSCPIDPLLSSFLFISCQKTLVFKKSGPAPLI
T1 sequence (P23977 whole entry): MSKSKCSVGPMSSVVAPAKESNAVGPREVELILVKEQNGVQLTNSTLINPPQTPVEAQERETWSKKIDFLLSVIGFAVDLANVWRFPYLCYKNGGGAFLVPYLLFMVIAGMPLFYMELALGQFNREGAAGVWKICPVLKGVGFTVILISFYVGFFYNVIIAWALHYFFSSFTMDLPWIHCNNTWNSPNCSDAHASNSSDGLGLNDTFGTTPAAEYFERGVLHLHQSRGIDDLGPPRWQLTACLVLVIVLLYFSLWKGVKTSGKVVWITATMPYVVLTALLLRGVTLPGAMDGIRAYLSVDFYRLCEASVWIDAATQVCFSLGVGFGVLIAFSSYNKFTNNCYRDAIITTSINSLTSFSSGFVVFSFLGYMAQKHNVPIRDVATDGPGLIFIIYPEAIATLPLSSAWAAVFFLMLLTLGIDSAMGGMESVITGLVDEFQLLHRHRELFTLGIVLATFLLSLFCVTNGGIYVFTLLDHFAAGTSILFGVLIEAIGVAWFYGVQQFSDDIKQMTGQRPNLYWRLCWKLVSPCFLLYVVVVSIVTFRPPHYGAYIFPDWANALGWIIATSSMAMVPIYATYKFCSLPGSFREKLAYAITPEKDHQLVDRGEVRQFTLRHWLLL

Structure (SMILES) | Ki [1] [nM] | Ki [2] [nM] | Ki [3] [nM] | Ki [4] [nM] | also measured
CN1CC[C@H](c2ccc(Cl)cc2)[C@@H](c2nc(-c3ccc4c(c3)OCO4)no2)C1 | > 3000 | > 3000 | > 3000 | > 3000 | –
CC(C)c1noc([C@@H]2CN(C)CC[C@H]2c2ccc(Cl)cc2)n1 | 3590 | 2900 | 2680 | 1220 | –
CN1CC[C@@H](c2ccc(Cl)cc2)[C@H](c2nc(-c3ccc(Cl)cc3)no2)C1 | > 3000 | > 3000 | > 3000 | > 3000 | –
CN1CC[C@@H](c2ccc(Cl)cc2)[C@H](c2nc(-c3ccc4c(c3)OCO4)no2)C1 | > 3000 | > 3000 | > 3000 | > 3000 | –
Cc1noc([C@H]2CN(C)CC[C@@H]2c2ccc(Cl)cc2)n1 | 187 | 201 | 256 | 5960 | IC50 [5]: 4.05 nM; IC50 [6]: 363 nM; IC50 [7]: 2580 nM
CN1CC[C@H](c2ccc(Cl)cc2)[C@@H](c2nc(-c3ccc(Br)cc3)no2)C1 | > 3000 | > 3000 | > 3000 | > 3000 | –
CN1CC[C@H](c2ccc(Cl)cc2)[C@@H](c2nc(-c3ccccc3)no2)C1 | 497 | – | – | – | IC50 [8]: > 10000 nM; IC50 [9]: > 3000 nM
COC(=O)[C@@H]1CN(C)CC[C@H]1c1ccc(Cl)cc1 | 2930 | 2000 | 396 | 930 | –
CN1CC[C@@H](c2ccc(Cl)cc2)[C@H](c2nc(-c3ccc(Br)cc3)no2)C1 | > 3000 | > 3000 | > 3000 | > 3000 | –
CN1CC[C@@H](c2ccc(Cl)cc2)[C@H](c2nc(-c3ccccc3)no2)C1 | 1710 | – | – | – | IC50 [8]: > 3000 nM; IC50 [9]: > 3000 nM
COC(=O)[C@H]1CN(C)CC[C@@H]1c1ccc(Cl)cc1 | – | 315 | 252 | 8490 | –
CN1CC[C@H](c2ccc(Cl)cc2)[C@@H](c2nc(-c3ccc(Cl)cc3)no2)C1 | > 3000 | > 3000 | > 3000 | > 3000 | IC50 [10]: 4.06 nM; IC50 [11]: 4070 nM; IC50 [7]: 404 nM
COc1ccc(-c2noc([C@@H]3CN(C)CC[C@H]3c3ccc(Cl)cc3)n2)cc1 | > 3000 | > 3000 | > 3000 | > 3000 | –
CC(C)c1noc([C@H]2CN(C)CC[C@@H]2c2ccc(Cl)cc2)n1 | 391 | 494 | 778 | 2920 | –
COc1ccc(-c2noc([C@H]3CN(C)CC[C@@H]3c3ccc(Cl)cc3)n2)cc1 | > 3000 | > 3000 | > 3000 | > 3000 | –
Cc1noc([C@@H]2CN(C)CC[C@H]2c2ccc(Cl)cc2)n1 | 955 | – | – | – | IC50 [12]: > 1000 nM; IC50 [13]: > 3000 nM
